The subject of series [1] is Mus musculus. Nature of the series: Anticonvulsant activity in mouse assessed as protection against electroshock-induced maximal seizure effect up to 100 mg/kg, po administered via gavage 2 hrs prior to electroshock stimulation. Format: functional, organism-based. Further details: dose 100 mg/kg.
The test system of series [2] is Mus musculus. The series can be described thus: Anticonvulsant activity in po dosed mouse assessed as protection against electroshock-induced maximal seizure effect administered via gavage 2 hrs prior to electroshock stimulation. It is filed as functional. Particulars: for ED50: Mus musculus, po.
Series [3] deals with Rattus norvegicus. Nature of the series: Induction of diuretic activity in po dosed rat assessed as increase in urine output after 4 hrs. It is filed as organism-based.
A short description of series [4]: Octanol-water partition coefficient, log P of the compound. Format: physicochemical.
Series [5] is described as follows: Elimination half life in iv dosed dog plasma. Format: ADME, organism-based, Canis lupus familiaris. Particulars: read-out: beta t1/2 (converted).
Series [6] is described as follows: Protein binding in plasma (unknown origin). Format: ADME, cell-free. Particulars: unidentified, read-out: PPB (converted).
Series [7] in a line: Dissociation constant, pKa of the compound. It is filed as physicochemical.

Active and inactive are the calls of the source. The calls are words filed in the database; no cut-off is given here.

The record followed here is ChEMBL document CHEMBL3244278, “Cerebrovasodilatation through selective inhibition of the enzyme carbonic anhydrase. 1. Substituted benzenedisulfonamides” (J Med Chem, 1978).

As a reminder, the ED50 is the dose at which the effect has come halfway, by size or by number of responders. Usually logP stands for a log measure of how a compound divides between an organic and an aqueous phase. Low values mean lower lipophilicity, high ones higher lipophilicity. Usually pKa stands for the pH at which an ionisable group is half protonated. A higher pKa goes with a weaker acid or stronger base.

As to `COC1CCN(S(=O)(=O)c2cc(Cl)c(S(N)(=O)=O)cc2C)CC1`, in series [1], the outcome was inactive.

As to `COC1(C)CCN(S(=O)(=O)c2ccc(S(N)(=O)=O)cc2)CC1`, in series [1], the outcome was inactive.

Turning to `COC1CCN(S(=O)(=O)c2c(Cl)cc(S(N)(=O)=O)cc2Cl)CC1`, the outcome in series [1] was inactive.

On to `CN1CN(c2ccccc2)C2(CCN(S(=O)(=O)c3ccc(S(N)(=O)=O)cc3)CC2)C1=O`, for which the ED50 in series [2] is over 40 mg/kg.

Consider `COC1CCN(S(=O)(=O)c2ccc(S(N)(=O)=O)c(C(F)(F)F)c2)CC1`, for which the outcome in series [1] was inactive.

As to `NS(=O)(=O)c1ccc(S(=O)(=O)N2CCC(O)(c3ccccn3)CC2)cc1`, the ED50 in series [2] stood at 40 mg/kg.

`NS(=O)(=O)c1cc(Cl)c(S(=O)(=O)N2CCOCC2)c(Cl)c1`: in series [1], the outcome was inactive.

`CC(=O)Nc1nnc(S(N)(=O)=O)s1` [ACETAZOLAMIDE]: in series [3], the ED50 was 5 mg/kg. The Activity in series [2] was 36 mg/kg.

As for `NS(=O)(=O)c1ccc(S(=O)(=O)N2CCC3(CC2)NC(=O)NC3=O)cc1Cl`, in series [1], the result was inactive.

`COC1CCN(S(=O)(=O)c2ccc(S(N)(=O)=O)c(Cl)c2)CC1` [UK-12130]: in series [4], the logP is 0.62. For the same compound, in series [5], the half-life is 180 min.

As for `COC1CCN(S(=O)(=O)c2cc(C)c(S(N)(=O)=O)c(C)c2)CC1`, in series [1], the result was inactive.

Turning to `CC(=O)C1CCN(S(=O)(=O)c2ccc(S(N)(=O)=O)cc2)CC1`, the outcome in series [1] was inactive.

`NS(=O)(=O)c1nnc(NS(=O)(=O)c2ccccc2)s1` [BENZOLAMIDE]: the fraction unbound in series [6] was 0.08. The pKa in series [7] amounted to 3.2.

Take `NS(=O)(=O)c1ccc(S(=O)(=O)N2CCOCC2)cc1C(F)(F)F`: in series [1], the result was inactive.
